Test results: US10117819B2, “Composition for hair frizz reduction” (The Procter & Gamble Company, priority 2014, dated 2018)

Experiment: Penetration amount of moisture control material inside hair (extraction, HPLC)
Conditions: compared to corresponding composition without 2-hydroxyethyl urea (XXVII and XXVIII)
Method: Each hair tress is extracted 3 times with 0.1% TFA (Trifluoroacetic acid) in methanol and the individual extracts are analyzed separately using HPLC method.

O=C(O)c1ccccc1O [Salicylic acid]
Increase of penetration inside hair with 2% of 2-hydroxyethyl urea: 14%
